Counter-ions that a name gives are not always drawn.
Tests used:
[1] = system: Reconstructed Human Epidermis (RHE) EpiDerm; assay: In vitro Skin Irritation Test on Reconstructed Human Epidermis (MTT viability); settings: for increase of cell concentration in comparison to control samples: RHE model, proliferation
Description: A Skin Irritation Test was prepared according to SOP (Standard Operation Protocol) of In vitro Skin Irritation Test (ECVAM): Human Skin Model, EpiDerm-200, Version: 7.0, 30th Oct 2007.
Standard EpiDermFT kit (MatTek Corporation) consisted of 24 tissues. Costar Snapwell single well tissue culture plate inserts had the surface area of about 1.0 cm^2 and the diameter of about 1.2 cm. Moreover inserts were equipped with pores (size 0.4 μm diameter). Before test, all tissues were visually inspected if there are any physical imperfections. […] The culture medium was fed through a microporous membrane. The tissue contained 8–12 cell layers plus stratum corneum (basal, spinous, and granular layers) [35].
In vitro skin irritation test was prepared according to the procedure described by Kandarova et al. [35]. On the first day, tissues were topically exposed to the oil solutions of tested triterpenes. White crystals of each compound were dissolved in caprylic and capric triglyceride (Crodamol GTCC, Croda). The esters concentration in the solutions was 0.5% (m/m). Three tissues were used for each tested substance, as well as for the positive and negative control. Positive control solution consisted of 5% aq. solution of SDS (Sodium Dodecyl Sulfate, Mattek), and a negative control solution consisted of Caprylic and Capric Triglycerides (Crodamol GTCC, Croda). Chemical exposure time was 60 min, during which, for 35 min, the tissues were kept in an incubator at 37°C (chamber Heraeus, Kendro). The test substances were then removed from the tissue surface by an extensive washing procedure using DPBS (phosphate-buffered saline, pH = 7.4, Mattek). The tissue inserts were blotted and transferred to fresh medium.
After 24 hours of incubation, the medium was exchanged and the tissues were incubated for an additional 18 hours. After 42 hours of incubation time, the tissues were transferred into a yellow solution of MTT (3-(4,5-dimethylthiazol-2-yl)-2,5-diphenyltetrazolium bromide, Mattek) and incubated for a further 3 hours. The resultant purple-blue formazan salt, formed mainly by mitochondrial metabolism, was extracted after 2 hours with isopropanol, pure (Mattek). The optical density (OD570) of the extracted formazan solution was determined using a spectrophotometer (Biotek, PowerWave XS). Cells viability assay was calculated referring to the negative control tissues. A substance is classified as an irritant if the tissue viability relative to the negative control treated tissues is reduced below 50%.

Compound | melting point [°C] | increase of cell concentration in comparison to control samples [1] | Viability [%] / SD ([1]; Epiderm, 0.5% (m/m) in caprylic and capric triglyceride, 60 min exposure, 42 h incubation, MTT, relative to negative control, n = 3) [%]
C=C(C)C1CCC2(C)CCC3(C)C(CCC4C5(C)CCC(OC(=O)CCC(=O)O)C(C)(C)C5CCC43C)C12 (stereo not drawn) (as salt: succinate) [Compound 5, Lupeol succinate] | 221 to 223 |  | 
C=C(C)C1CCC2(C)CCC3(C)C(CCC4C5(C)CCC(OC(C)=O)C(C)(C)C5CCC43C)C12 (stereo not drawn) [Compound 2, Lupeol acetate] | 216 to 219 | more than 30% | 
C=C(C)C1CCC2(C)CCC3(C)C(CCC4C5(C)CCC(OC(=O)CC)C(C)(C)C5CCC43C)C12 (stereo not drawn) [Compound 3, Lupeol propionate] | 220 to 222 | more than 30% | 
C=C(C)[C@@H]1CC[C@]2(C)CC[C@]3(C)[C@H](CC[C@@H]4[C@@]5(C)CC[C@H](OC(=O)c6ccncc6)C(C)(C)[C@@H]5CC[C@]43C)[C@@H]12 [Compound 4, Lupeol isonicotinate] | 179 to 183 | more than 30% | 
C=C(C)[C@@H]1CC[C@]2(C)CC[C@]3(C)[C@H](CC[C@@H]4[C@@]5(C)CC[C@H](OC(=O)c6ccccc6OC(C)=O)C(C)(C)[C@@H]5CC[C@]43C)[C@@H]12 [Compound 6, Lupeol acetylsalicylate] | 226 to 229 |  | 
CCCCCCCCCCCCOS(=O)(=O)[O-].[Na+] [PC, Sodium Dodecyl Sulfate, reference compound] |  |  | 28.1

Reference: PMC6438679, “New lupeol esters as active substances in the treatment of skin damage” (PLoS ONE, 2019)
